Measured values: patent US12485116B2, “Pharmaceutical composition for preventing or treating epidemic RNA viral infectious disease” (priority 2020, dated 2025)

How the values were obtained:
[1] = tested on: SARS-CoV-2; assay: Post-infection treatment, viral plaque assay, Calu-3 cells; assay type: cell-based, SARS-CoV-2 (a Korean isolate); conditions: Severe acute respiratory syndrome coronavirus 2, Calu-3, 12.5 μM, 48 hours after drug treatment
Method: In Experimental Example 6, pyronaridine tetraphosphate or artesunate was treated each in Calu-3 cells at 0, 2, 4, 6, 8, 10, 12, 24 and 36 hours after SARS-CoV-2 (a Korean isolate) inoculation, and evaluated how long hours the inhibitory effect of each drug were retained against virus infections.
Calu-3 cells and viruses were prepared in the same manner as shown in Experimental Example 5.
After dissolving pyronaridine tetraphosphate and artesunate in DMSO each, it was diluted to 12.5 μM using media. At 1 hour after the inoculation with SARS-CoV-2 (MOI=0.1), the supernatant was removed, and Calu-3 cells were washed, followed by the addition of DMEM culture media containing 2% bovine serum. The culture media containing drugs were added at 0, 2, 4, 6, 8, 10, 12, 24 and 36 hours each. At 48 hours after each drug treatment, cell supernatants were harvested and a plaque assay—in which the plaques generated by infectious virus infection were counted in Vero cells, cells used for virus amplification—was performed. The DMEM-F12 medium layer containing 2% agarose was laid on the layer of infected Vero cells, and the number of plaques was counted by using counter-staining with crystal violet, after incubation for 72 hours.

[2] = tested on: SARS-CoV-2; assay: Antiviral efficacy by RNA copy numbers (qRT-PCR, RdRp gene), co-treatment, Vero cells
[3] = tested on: Ebola virus; conditions: in vitro assays; cited from earlier work
[4] = tested on: Vero cells; assay: Cytotoxicity, tetrazolium salts-based assay (WST-1), Vero cells; assay type: cell-based, African green monkeys (Chlorocebus sp.); conditions: all conditions tested (3.13, 12.5, 50 μM)
[5] = tested on: SARS-CoV-2; assay: Antiviral efficacy by RNA copy numbers (qRT-PCR), co-treatment, Calu-3 human lung cell line; conditions: Calu-3 cells; for selectivity index, SI / IC50: 48 hours post-infection; for IC50: co-treatment
[6] = Cytotoxicity (WST-1), Calu-3 cells; conditions: human
[7] = tested on: Ebola virus; conditions: guinea pig models infected with Ebola virus; cited from earlier work
[8] = tested on: SARS-CoV-2; assay: Antiviral efficacy by immunofluorescence staining imaging, pretreatment, Vero cells; conditions: 50 μM, pretreated 1 hour, 24 hours post-infection
[9] = tested on: Vero cells; conditions: African green monkey (Chlorocebus sp.)
[10] = tested on: Ebola virus; conditions: cited from earlier work
[11] = tested on: Ebola virus; conditions: Hela cells; cited from earlier work
[12] = tested on: Ebola virus; conditions: Vero cells; cited from earlier work
[13] = tested on: SARS-CoV-2; assay: In vivo antiviral efficacy in SARS-CoV-2-infected hamsters, lung virus titer by plaque assay; parameters: species or system Syrian hamsters; conditions: 360 mg/kg alone, oral, once at 25 hours post-infection, 4-day post-infection; vehicle control 8.30
[14] = in vitro; conditions: human
[15] = tested on: Vero cells; conditions: cited from earlier work
[16] = tested on: Hela cells; conditions: cited from earlier work
[17] = added at up to 6 hours post-infection
[18] = added at up to 12 hours post-infection
[19] = added at up to 24 hours post-infection
[20] = co-treatment, Vero cells, 24 hours after infection

Work on `C[C@H]1[C@H](OC(=O)CCC(=O)O)O[C@@H]2O[C@@]3(C)CC[C@H]4[C@H](C)CC[C@@H]1[C@@]24OO3` [artesunate] yielded an inhibition at 12.5 µM [1, 17] of 92 to 96%, an inhibition at 12.5 µM [1, 18] greater than 90% and an inhibition at 12.5 µM [1, 19] of 48%. The inhibition rate ([2]; 3.13 μM, 48 hours post-infection, Vero cells) was 39%, the inhibition rate ([2]; 12.5 μM, 24 hours post-infection, Vero cells) was 40% and the inhibition rate ([2]; 12.5 μM, 48 hours post-infection, Vero cells) was 51%. The “inhibition rate against virus” value ([2]; 50 μM, Vero cells, co-treatment) was 83%, the “antiviral efficacy against Ebola virus” value [3] was “showed an antiviral efficacy” and the cytotoxicity [4] was “no significant cytotoxicity”. For the same compound, the “selectivity index, SI” value [5] was greater than 220.8, the IC50 [5] was 0.45 µM and the CC50 at 48 h [6] was greater than 100 µM.
For `CCN(CC)CCCC(C)Nc1ccnc2cc(Cl)ccc12` (stereo not drawn) [chloroquine], the antiviral effect [7] is listed as “did not show antiviral effect”.
In the case of `CCN(CCO)CCCC(C)Nc1ccnc2cc(Cl)ccc12` (stereo not drawn) [hydroxychloroquine], the “antiviral efficacy in the monkey cell lines” value ([2]; monkey cell lines (Vero)) is reported as “showed antiviral efficacy” and the “antiviral effect in the human lung cell lines” value ([5]; at less than 50 μM) is reported as “no antiviral effect”.
In the case of `COc1ccc2nc3cc(Cl)ccc3c(Nc3cc(CN4CCCC4)c(O)c(CN4CCCC4)c3)c2n1` [pyronaridine], the inhibition at 12.5 µM [1, 17] is reported as greater than 99%, the inhibition at 12.5 µM [1, 18] is reported as greater than 94% and the inhibition at 12.5 µM [1, 19] is reported as 90%. For the same compound, the virus inhibition rate [8] was 70%, the “selectivity index, SI” value ([2]; Vero cells, co-treatment) was greater than 1.40 and the EC50 [2, 20] was 8.27 µM. For the same compound, the “inhibition at non-cytotoxic concentrations” value [2, 20] was “more than 90%”, the “cytotoxicity increased by drug pretreatment” value [9] was 17% and the “virus titer and survival rate” value ([10]; Ebola virus-challenged mouse models) was “significantly improved”. The “mortality and viral infection rate” value ([10]; mouse models challenged with Ebola virus) was “significantly inhibited”, the EC50 [11] was 0.42 to 1.12 µM and the “antiviral activity against Ebola virus at a concentration below CC50” value [12] was “no antiviral activity”. The “median infectious virus titer in the lung tissues” value [13] was 7.22 Log10 PFU, the “selectivity index, SI” value [5] was greater than 11.66 and the IC50 [5] was 8.58 µM. The CC50 at 48 h [14] was greater than 100 µM, the CC50 [15] was 1.3 µM and the CC50 [16] was 3.1 µM.
